Measured values as given in US20090197957A1, “Methods and compositions for the treatment of pain” (Nuon Therapeutics, Inc., priority 2005, published 2009).

Experiments:
[1] = tested on: mechanical and thermal allodynia in CIA; test: Allodynia assessment in arthritic mice (Plantar Von-Frey, Hargreaves test); format: in vivo
Protocol: FIG. 6 is an image depicting that 3,4-DAA inhibits mechanical and thermal allodynia, and inhibits astrocytic activation in arthritic mice. Mechanical (a) and thermal (b) allodynia, and paw swelling (c) and clinical score (d) were assessed in naïve mice on the day of arthritis onset, and up to 10 days following therapy with 200 mg/kg 3,4-DAA, […] dexamethasone, or vehicle. […] Whilst 3,4-DAA therapy reduced astrocytic activation (bottom right panel) dexamethasone had no action on GFAP levels (bottom left panel). Quantification of the number of hyper-plastic astrocytes in the spinal cord 10 days following onset of arthritis was performed (f).
The pain thresholds of the mice were assessed prior to immunization (naïve) on day of onset (day 0) and up to 10 days following therapy with 3,4-DAA (200 mg/kg/day), dexamethasone (0.5 mg/kg/2 days) or vehicle alone (n=9 per group). The Ugo Basile 37400 Plantar Von-Frey microprocessor controlled unit was used to assess mechanical hyperalgesia and Ugo Basile 7370-6 Plantar Test (Hargreaves test) was used to assess thermal hyperalgesia. Mechanical hyperalgesia was assessed by applying an increasing force to the hind paw at the rate of 3 g/second, and measuring the force required to elicit lifting of the paw. Thermal hyperalgesia was assessed by applying an increasing infrared source (intensity 50), and measuring the time required for lifting of the paw.

[2] = tested on: purified B cells; test: B cell proliferation in vitro (anti-CD40, 3H-thymidine incorporation); format: cell-based; conditions: anti-CD40 stimulation, 72 h; for IC50: B-cell, read-out: IC50 for inhibition of B cell proliferation; for B cell proliferation: varying doses
Protocol: (§1) FIG. 7 is a graphical representation depicting that 3,4-DAA and 3-HAA inhibit B and T cell proliferation in vitro. Purified B and T cells were stimulated for 72 h with anti-CD40 (a), or anti-CD3/anti-CD28 (b) respectively, in the presence of varying doses of 3,4-DAA, or 3-HAA.
(§2) A single cell suspension was prepared by pushing splenic tissue through a cell strainer, and erythrocytes were lysed using an ammonium chloride solution (Sigma, St Louis, Mo.). B cells were positively enriched by using anti-IgM microbeads (BD Pharmingen), and T cells were positively enriched using anti-CD4 MACS microbeads, according to the manufacturer's guidelines (Miltenyi Biotec, Bergisch Gladbach, Germany). Purity was assessed by flow cytometric analysis (B cell>90% CD19+, T cell>90% CD4+). Cells were cultured at 5×10^5 cells/ml in 200 μl complete RPMI, as above, in a flat bottom 96-well plate and cultured for 72 h. B cells were stimulated with anti-CD40 monoclonal antibody (10 μg/ml; BD), and T cells were stimulated with 5 μg/ml plate-bound anti-CD3 (ebiosciences) plus 5 μg/ml soluble anti-CD28 (ebiosciences). 3,4-DAA, 3-HAA, or vehicle (DMSO) was added at graded concentrations immediately prior to stimulation. 48 hours after stimulation, 100 μl culture medium was collected, and cells were pulsed with 1 μCi ^3H thymidine per well for 18 h. Cells were then harvested and plates assessed for thymidine incorporation. Each assay was performed on a minimum of 3 occasions. IFN-γ, IL-10 and IL-5 levels were assessed in the culture medium by ELISA, as above.
(§3) Activation of purified B (FIG. 7a) and T cells (FIG. 7b) was induced by anti-CD40, and anti-CD3/CD28 respectively, and proliferation was assessed by ^3H-thymidine incorporation. […] Inhibition of proliferation was also observed when B cells were stimulated with LPS or anti-IgM. […] It was concluded that the effects of 3,4-DAA and 3-HAA on T and B cells in vitro were remarkably similar, though not identical. It is of also note that 3-HAA had no action on inflammation or allodynia, when administered therapeutically in CIA at doses of up to 400 mg/kg/day.

[3] = tested on: purified T cells; test: T cell proliferation in vitro (anti-CD3/anti-CD28, 3H-thymidine incorporation); format: cell-based; conditions: anti-CD3/anti-CD28 stimulation, 72 h; for IC50: T-cell, read-out: IC50 for inhibition of T cell proliferation; for T cell proliferation: varying doses
Protocol: as §1, §2, §3

[4] = established arthritis, up to 10 days therapy, 3,4-DAA 200 mg/kg/day, dexamethasone 0.5 mg/kg/2 days

Structure (SMILES): COc1ccc(/C=C/C(=O)Nc2ccccc2C(=O)O)cc1OC [Tranilast, 2-[[3-(3,4-dimethoxyphenyl)-1-oxo-2-propenyl]amino]benzoic acid]
- mechanical allodynia [1, 4]: abolished
- thermal allodynia [1, 4]: abolished
- IC50 [2]: 73 µM
- B cell proliferation [2]: dose-dependently inhibited
- IC50 [3]: 28 µM
- T cell proliferation [3]: dose-dependently inhibited

Structure (SMILES): Nc1c(O)cccc1C(=O)O [3-Hydroxyanthranilic acid]
- action on allodynia in CIA ([1]; administered therapeutically at doses of up to 400 mg/kg/day): no action
- IC50 [2]: 65 µM
- B cell proliferation [2]: dose-dependently inhibited
- IC50 [3]: 100 µM
- T cell proliferation [3]: dose-dependently inhibited
